Results taken from PubChem BioAssay (NCI).
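Growth conditions: 96-well plates. Treatment: test compound, 48 hours, 5 concentrations. Analysis: linear interpolation between bracketing concentrations; unreached endpoints set to highest concentration. TGI denotes the concentration required for complete inhibition of growth.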

Assays:
Test in all cases: NCI tumour cell line growth inhibition, 48 h
IGROV1 ovarian = tested on: IGROV1 ovarian
EKVX NSCLC = tested on: EKVX NSCLC
SK-MEL-5 melanoma = tested on: SK-MEL-5 melanoma
UACC-257 melanoma = tested on: UACC-257 melanoma
SF-268 CNS = tested on: SF-268 CNS
OVCAR-8 ovarian = tested on: OVCAR-8 ovarian
UO-31 renal = tested on: UO-31 renal
MDA-MB-435 = tested on: MDA-MB-435
CCRF-CEM leukemia = tested on: CCRF-CEM leukemia
SF-295 CNS = tested on: SF-295 CNS

| Structure (SMILES) | TGI (IGROV1 ovarian) [µM] | TGI (EKVX NSCLC) [µM] | TGI (SK-MEL-5 melanoma) [µM] | TGI (UACC-257 melanoma) [µM] | TGI (SF-268 CNS) [µM] | TGI (OVCAR-8 ovarian) [µM] | TGI (UO-31 renal) [µM] | TGI (MDA-MB-435) [µM] | TGI (CCRF-CEM leukemia) [µM] | TGI (SF-295 CNS) [µM] |
| --- | --- | --- | --- | --- | --- | --- | --- | --- | --- | --- |
| CCCCN1C(=O)c2c(-c3sccc3N)sc(-c3sccc3N)c2C1=O | > 100 | > 83.7 | > 100 | > 100 | > 74.3 | > 72.1 | > 51 | > 100 | > 31 | 58 |
| COCOc1c(C(O[Si](C)(C)C(C)(C)C)c2cnc(Sc3ccccc3)n2C)ccc(OC)c1OC (stereo not given) | 5.01 | 7.65 | 3.21 | 4.6 | 3.34 | 2.74 | 3.32 | 3.26 | 9 | 6.18 |
| CC1OC2(CC(OCc3ccccc3)C1OCc1ccccc1)OCCO2 (stereo not given) | > 100 | > 100 | > 100 | > 100 | > 100 | > 100 | > 100 | > 100 | > 100 | > 100 |
| CSCCCNC(=O)c1csc(-c2csc(C(CNC(=O)OC(C)(C)C)CNC(=O)OC(C)(C)C)n2)n1 | > 100 | > 100 | > 100 | > 100 | > 100 | > 100 | > 100 | > 100 | 44 | > 100 |
| COC(=O)/C=C/c1ccc2c(c1)CC1(C2)Cc2cc3c(cc2C1=O)CCC3 (stereo not given) | > 100 | > 100 | > 100 | > 100 | > 100 | 68.8 | > 100 | > 100 | > 100 | > 100 |
| Nc1nc(N)c2ncn(Cc3ccccc3CCl)c2n1 | > 100 | > 100 | > 100 | > 100 | > 100 | > 100 | > 100 | > 100 | > 100 | > 100 |
| CCCCNC(=S)Nc1nc(C(=O)NNC(=S)NC2CCCCC2)cs1 | > 100 | > 100 | > 100 | > 100 | > 100 | > 100 | > 100 | > 100 | > 100 | > 100 |
| CCCCCCCCCCCCCC[S+](C)C | 2.33 | 9.87 | 2.97 | 6.99 | 3.99 | 3.58 | > 10 | 4.35 | 3.25 | > 10 |
| COC(=O)c1ccc(C)cc1/C=C1\Cc2ccc(C)cc2C1=O | 45.8 | 88.4 | 29.7 | 51.5 | 48.4 | 59 | 26.3 | 20.2 | > 100 | 41.1 |
| CC(=O)OCC1OC(SC2OC(COC(C)=O)C(OC(C)=O)C(OC(C)=O)C2OC(C)=O)C(OC(C)=O)C(OC(C)=O)C1OC(C)=O (stereo not given) | > 100 | > 100 | > 100 | > 100 | > 100 | > 100 | > 100 | > 100 | > 100 | > 100 |
| CCn1cc(C(=O)O)c(=O)c2cc3c(cc21)S(=O)(=O)CC3 | > 100 | > 100 | > 100 | > 100 | > 100 | > 100 | > 100 | > 100 | > 100 | > 100 |
| Nc1nc(Cl)cc(NCCC2(CO)CCC2)n1 | > 100 | > 100 | > 100 | > 100 | > 100 | > 100 | > 100 | > 100 | > 100 | > 100 |
| N#CCCN(CCC#N)c1ccc(/C=C2\N=C(c3ccccc3)N(NC(N)=S)C2=O)cc1 | > 100 | > 100 | > 100 | > 100 | > 100 | > 100 | > 100 | > 100 | > 100 | > 100 |
| CC(=O)O[C@@H]1C2=C(C)C=C(O2)[C@H]2O[C@]2(C)C[C@H]2C=C(C(=O)O2)[C@H](OC(C)=O)CC1[C@@]1(C)CO1 (stereo not given in full) | 30.8 | 85 | > 100 | > 100 | > 100 | > 100 | 51.4 | 71.8 | 29.6 | > 100 |
| Cc1cc(C)nc(SC(C)C(=O)N/N=C/c2ccc(OCc3ccccc3)cc2)n1 (stereo not given) | > 100 | > 100 | 20.5 | 37.9 | > 100 | > 100 | > 100 | > 100 | > 100 | > 100 |
| C/C(=C/C(=O)Nn1c(Cc2ccccc2)n[nH]c1=O)C(=O)O | > 100 | > 100 | > 100 | > 100 | > 100 | > 100 | > 100 | > 100 | > 100 | > 100 |
| O=C(/C=C/c1cc(O)c(O)cc1O)OCCc1ccccc1 | 40.5 | > 95.6 | 38.4 | > 64.9 | 38.6 | 22.9 | 19.7 | 48.9 | 7.17 | > 82.3 |
| O=C(O)c1cnc2[nH]ccn2c1=O | > 100 | > 100 | > 100 | > 100 | > 100 | > 100 | > 100 | > 100 | > 100 | > 100 |
| CC(C)C1=CCC2C(=C1)CCC1C(C)(C(=O)O)CCCC21C (stereo not given) (tested in a mixture with another compound) | > 100 | > 100 | > 100 | > 100 | > 100 | > 100 | > 100 | > 100 | > 100 | > 100 |
